Columns and labels:
mice = test: In vivo delivery of FLuc-mRNA lipid nanoparticle preparations in mice (IVIS imaging); parameters: In vivo IVIS / In vivo IVIS (liver) / In vivo IVIS (spleen): unit not given here; conditions: for in vivo delivery efficiency as compared to the benchmark compound SM102: certain formulations
Procedure: 7. In Vivo Delivery of the Nucleic Acid Lipid Nanoparticle Preparations in Mice After the preparation was completed, the preparation was injected intramuscularly (mice rectus femoris muscle of the thigh) or intravenously (mice tail vein), with approximately 75 μL per mouse, for a total of 3 mice. After a certain time of injection, in vivo imaging (PerkinElmer, IVIS Lumina III) was performed. 10-15 minutes before imaging, 200 μL of 15 mg/mL D-Luciferin working solution was injected intraperitoneally, and the imaging analysis was performed using an in vivo imager.

[1] = Particle size and PDI by dynamic light scattering; type: physicochemical
Procedure: The 7.5 μL nucleic acid lipid nanoparticle solution (containing approximately 0.04 mg/mL mRNA) was taken and added with 200 μL ultrapure water, mixed by gentle blowing using a pipette tip, and the particle size of the nanopreparation was detected by dynamic lightscattering (DLS) using a Malvern Dynamic Light Scattering Instrument (Malvern Instruments Ltd., ZEN3700, UK). 27.5 μL nucleic acid lipid nanoparticle solution (containing about 0.04 mg/mL mRNA) was taken and added with 200 μL ultrapure water. A pipette tip was used to gently blow the sample and mix well. The particle size of the nanopreparation was detected by Malvern Dynamic Light Scattering Instrument (Malvern Instruments Ltd., ZEN3700, UK). After the detection, the sample was recovered to an EP tube, and 600 μL of ultrapure water was added, gently blown with a pipette tip, and the potential of the nanopreparation was measured by a Malvern particle size meter.

[2] = Table 2, IV, whole body scan, molar ratio DMG-PEG2000:DSPC:Chol:Lipid and N/P
[3] = Table 2, LNP formulation with mRNA

SMILES	Particle size (nm) [1, 3]	PDI ([1]; Table 2, polydispersity value)	In vivo IVIS (mice; Table 2, IM, whole body scan)	In vivo IVIS (mice; [2])	In vivo IVIS (mice; Table 4, IM)	In vivo IVIS (mice; Table 4, IV)	also measured
CCCCCCCCCCCCNC(=O)C(O)CN(CCC(=O)NCCCN1CCN(CCCNC(=O)CCN(CC(O)C(=O)NCCCCCCCCCCCC)CC(O)C(=O)NCCCCCCCCCCCC)CC1)CC(O)C(=O)NCCCCCCCCCCCC (stereo not shown) [Compound L0194]	109.10 ± 0.50 nm	0.13 ± 0.00	1.08 × 10^6	2.14 × 10^5	–	–	–
CCCCCCCCCCCCNC(=O)C(O)CN(CCCC(=O)NCCCN1CCN(CCCNC(=O)CCCN(CC(O)C(=O)NCCCCCCCCCCCC)CC(O)C(=O)NCCCCCCCCCCCC)CC1)CC(O)C(=O)NCCCCCCCCCCCC (stereo not shown) [Compound L0195]	90.79 ± 0.65 nm	0.17 ± 0.02	6.81 × 10^5	4.54 × 10^5	–	–	–
CCCCCCCCC(CCCCCC)C(=O)OCCCCCCOC(=O)C(O)CN(CCCN1CCN(CCCN(CC(O)C(=O)OCCCCCCOC(=O)C(CCCCCC)CCCCCCCC)CC(O)C(=O)OCCCCCCOC(=O)C(CCCCCC)CCCCCCCC)CC1)CC(O)C(=O)OCCCCCCOC(=O)C(CCCCCC)CCCCCCCC (stereo not shown) [Compound L0197]	102.47 ± 0.25 nm	0.13 ± 0.02	3.81 × 10^6	5.97 × 10^8	–	–	In vivo IVIS (liver) (mice; Table 2, IV): 2.34 × 10^6; In vivo IVIS (spleen) (mice; Table 2, IV): 7.26 × 10^7
CC/C=C\CCOCOCCCCCCOC(=O)C(O)CN(CCN1CCN(CCN(CC(O)C(=O)OCCCCCCOCOCC/C=C\CC)CC(O)C(=O)OCCCCCCOCOCC/C=C\CC)CC1)CCN(CC(O)C(=O)OCCCCCCOCOCC/C=C\CC)CC(O)C(=O)OCCCCCCOCOCC/C=C\CC (stereo not shown) [Compound L0201]	119.70 ± 0.61 nm	0.07 ± 0.01	2.18 × 10^6	4.46 × 10^6	–	–	In vivo IVIS (liver) (mice; Table 2, IV): 5.29 × 10^8; In vivo IVIS (spleen) (mice; Table 2, IV): 7.89 × 10^7; in vivo delivery efficiency as compared to the benchmark compound SM102 (mice; Table 2): superior in vivo delivery efficiency
CCCC/C=C\CCOCOCCCCOC(=O)C(O)CN(CCN1CCN(CCN(CC(O)C(=O)OCCCCOCOCC/C=C\CCCC)CC(O)C(=O)OCCCCOCOCC/C=C\CCCC)CC1)CCN(CC(O)C(=O)OCCCCOCOCC/C=C\CCCC)CC(O)C(=O)OCCCCOCOCC/C=C\CCCC (stereo not shown) [Compound L0202]	114.43 ± 0.96 nm	0.07 ± 0.02	9.20 × 10^7	3.73 × 10^9	–	–	in vivo delivery efficiency as compared to the benchmark compound SM102 (mice; Table 2): superior in vivo delivery efficiency
CCCCCCCCCCCCOC(=O)C(O)CN(Cc1ccc(CN(CC(O)C(=O)OCCCCCCCCCCCC)CC(O)C(=O)OCCCCCCCCCCCC)cc1)CC(O)C(=O)OCCCCCCCCCCCC (stereo not shown) [Compound L0207]	–	–	–	–	1.75 × 10^5	2.41 × 10^5	PDI ([1]; Table 4): 0.19 ± 0.00; Particle size (nm) ([1]; Table 4): 172.13 ± 1.53 nm
CCCCCCCCCCCCNC(=O)C(O)CN(Cc1ccc(CN(CC(O)C(=O)NCCCCCCCCCCCC)CC(O)C(=O)NCCCCCCCCCCCC)cc1)CC(O)C(=O)NCCCCCCCCCCCC (stereo not shown) [Compound L0208]	–	–	–	–	1.94 × 10^6	2.27 × 10^5	PDI ([1]; Table 4): 0.14 ± 0.03; Particle size (nm) ([1]; Table 4): 176.67 ± 1.97 nm
CCCCCCCCCCOC(=O)C(O)CN(CCCN1CCN(CCCN(CC(O)C(=O)OCCCCCCCCCC)CC(O)C(=O)OCCCCCCCCCC)CC1)CC(O)C(=O)OCCCCCCCCCC (stereo not shown) [Compound L0209]	–	–	–	–	7.33 × 10^8	1.52 × 10^10	Particle size (nm) ([1]; Table 4, molar ratio 1.00:6.00:44.50:48.50, N/P 40, IV formulation): 99.95 ± 0.74 nm; Particle size (nm) ([1]; Table 4, molar ratio 1.50:6.00:57.50:35.00, N/P 48, IM formulation): 84.17 ± 0.31 nm
CCCCCCCCCCOC(=O)C(O)CN(CCN1CCN(CCN(CC(O)C(=O)OCCCCCCCCCC)CC(O)C(=O)OCCCCCCCCCC)CC1)CCN(CC(O)C(=O)OCCCCCCCCCC)CC(O)C(=O)OCCCCCCCCCC (stereo not shown) [Compound L0210]	–	–	–	–	2.48 × 10^7	6.93 × 10^9	PDI ([1]; Table 4): 0.15 ± 0.01; Particle size (nm) ([1]; Table 4, molar ratio 1.00:16.00:48.00:35.00, N/P 30, IV formulation): 101.83 ± 0.21 nm; Particle size (nm) ([1]; Table 4, molar ratio 1.40:11.15:38.95:48.50, N/P 40, IM formulation): 94.89 ± 0.78 nm

More lines, main results first:

Particle size (nm) [1, 3]	PDI ([1]; Table 2, polydispersity value)	SMILES	In vivo IVIS (mice; Table 2, IM, whole body scan)	In vivo IVIS (mice; [2])	In vivo IVIS (mice; Table 4, IM)	In vivo IVIS (mice; Table 4, IV)	also measured
89.18 ± 0.22 nm	0.11 ± 0.01	CCCCCCC(CCCCCC)C(=O)OCCCCOC(=O)C(O)CN(CCCN1CCN(CCCN(CC(O)C(=O)OCCCCOC(=O)C(CCCCCC)CCCCCC)CC(O)C(=O)OCCCCOC(=O)C(CCCCCC)CCCCCC)CC1)CC(O)C(=O)OCCCCOC(=O)C(CCCCCC)CCCCCC (stereo not shown) [Compound L0196]	1.82 × 10^8	2.00 × 10^9	–	–	in vivo delivery efficiency as compared to the benchmark compound SM102 (mice; Table 2): superior in vivo delivery efficiency
90.47 ± 0.74 nm	0.17 ± 0.01	CCCCCCCCCCNC(=O)C(O)CN(CCN1CCN(CCN(CC(O)C(=O)NCCCCCCCCCC)CC(O)C(=O)NCCCCCCCCCC)CC1)CCN(CC(O)C(=O)NCCCCCCCCCC)CC(O)C(=O)NCCCCCCCCCC (stereo not shown) [Compound L0198]	9.58 × 10^6	4.61 × 10^7	–	–	–

— patent publication US12599560B2, “Lipids and lipid nanoparticle formulations” (Longuide Biopharma Corporation, priority 2023, dated 2026)
